Measured values: ChEMBL document CHEMBL6182864, “Design, synthesis and biological evaluation of 3-amino-6-(2-hydroxyphenyl)pyridazin-4-aryl derivatives as SMARCA2/4 degraders” (Eur J Med Chem, 2025)
Calls of active or inactive are those of the source. The rule behind the calls is not given here.

Assays:
MV4-11 [1] = experiment: Down regulation of […] mRNA expression in human MV4-11 cells at 11.1 to 33.3 nM measured after 24 hrs by RT-qPCR analysis; assay type: functional, cell-based; details: dose 11.1-33.3 nM
MDA-MB-231 = experiment: cells; details: Homo sapiens, MDA-MB-231, 72 h
[2] = Tmax in SPF Sprague-Dawley rat at 10 mg/kg, po by LC-MS/MS analysis; assay type: ADME, organism-based; details: in vivo
WSUDLCL2 = experiment: cells; details: Homo sapiens, WSUDLCL2, 72 h
MOLM-13 [3] = experiment: Induction of apoptosis in human MOLM-13 cells assessed as necrotic cells at 100 nM measured after 72 hrs by Annexin-V-FITC/propidium iodide staining based flow cytometry (reference value: 0.28%); assay type: functional
A2780 = experiment: cells; details: Homo sapiens, A2780, 72 h
MOLM-13 [4] = experiment: Induction of apoptosis in human MOLM-13 cells assessed as late apoptotic cells at 100 nM measured after 72 hrs by Annexin-V-FITC/propidium iodide staining based flow cytometry (reference value: 3.87%); assay type: functional
MOLM-13 [5] = experiment: Induction of apoptosis in human MOLM-13 cells assessed as viable cells at 300 nM measured after 72 hrs by Annexin-V-FITC/propidium iodide staining based flow cytometry (reference value: 90.28%); assay type: functional; details: read-out: Activity
[6] = Down regulation of SMARCA4 level in human MV4-11 cells at 100 nM measured after 6 hrs by mass spectrometric proteomic analysis relative to control; assay type: functional
MV4-11 [7] = experiment: Induction of apoptosis in human MV4-11 cells assessed as upregulation of PARP expression measured after 72 hrs by Western blot analysis; assay type: functional, cell-based; details: dose 100-1000 nM
MV4-11 [8] = experiment: Down regulation of BCL-2 mRNA expression in human MV4-11 cells at 11.1 to 1000 nM measured after 24 hrs by RT-qPCR analysis; assay type: functional, cell-based; details: dose 11.1-1000 nM
MV4-11 [9] = experiment: Induction of apoptosis in human MV4-11 cells assessed as early apoptotic cells at 300 nM measured after 72 hrs by Annexin-V-FITC/propidium iodide staining based flow cytometry (reference value: 9.32%); assay type: functional
MOLM-13 [10] = experiment: Induction of apoptosis in human MOLM-13 cells assessed as necrotic cells at 300 nM measured after 72 hrs by Annexin-V-FITC/propidium iodide staining based flow cytometry (reference value: 0.28%); assay type: functional
MV4-11 [11] = experiment: Down regulation of CDC25A mRNA expression in human MV4-11 cells at 100 to 1000 nM measured after 24 hrs by RT-qPCR analysis; assay type: functional, cell-based; details: dose 100-1000 nM
MV4-11 [12] = experiment: Down regulation of PU.1 mRNA expression in human MV4-11 cells at 11.1 to 1000 nM measured after 24 hrs by RT-qPCR analysis; assay type: functional, cell-based; details: dose 11.1-1000 nM
MOLM-13 [13] = experiment: Induction of apoptosis in human MOLM-13 cells assessed as early apoptotic cells at 300 nM measured after 72 hrs by Annexin-V-FITC/propidium iodide staining based flow cytometry (reference value: 5.57%); assay type: functional
MOLM-13 [14] = experiment: Induction of apoptosis in human MOLM-13 cells assessed as viable cells at 1000 nM measured after 72 hrs by Annexin-V-FITC/propidium iodide staining based flow cytometry (reference value: 90.28%); assay type: functional; details: read-out: Activity
SUD4 = experiment: cells; details: Homo sapiens, SU-DHL-4, 72 h
[15] = Down regulation of PBRM1 level in human MV4-11 cells at 100 nM measured after 6 hrs by mass spectrometric proteomic analysis relative to control; assay type: functional
MOLM-13 [16] = experiment: Induction of apoptosis in human MOLM-13 cells assessed as upregulation of cleaved caspase-3 expression measured after 72 hrs by Western blot analysis; assay type: functional, cell-based; details: dose 100-1000 nM
[17] = MRT (0 to t) in SPF Sprague-Dawley rat at 1 mg/kg, iv by LC-MS/MS analysis; assay type: ADME, organism-based; details: in vivo
MOLM-13 [18] = experiment: cells; details: Homo sapiens, MOLM-13, 72 h
[19] = MRT (0 to t) in SPF Sprague-Dawley rat at 10 mg/kg, po by LC-MS/MS analysis; assay type: ADME, organism-based; details: in vivo
MV4-11 [20] = experiment: Induction of apoptosis in human MV4-11 cells assessed as early apoptotic cells at 1000 nM measured after 72 hrs by Annexin-V-FITC/propidium iodide staining based flow cytometry (reference value: 9.32%); assay type: functional
MOLM-13 [21] = experiment: Induction of apoptosis in human MOLM-13 cells assessed as viable cells at 100 nM measured after 72 hrs by Annexin-V-FITC/propidium iodide staining based flow cytometry (reference value: 90.28%); assay type: functional; details: read-out: Activity
[22] = Tmax in SPF Sprague-Dawley rat at 1 mg/kg, iv by LC-MS/MS analysis; assay type: ADME, organism-based; details: in vivo
MV4-11 [23] = experiment: Down regulation of MYC mRNA expression in human MV4-11 cells measured after 24 hrs by RT-qPCR analysis; assay type: functional, cell-based; details: dose 11.1-1000 nM
MOLM-13 [24] = experiment: Cell cycle arrest in human MOLM-13 cells assessed as increase in accumulation of cells at G0/G1 phase measured after 48 hrs by propidium iodide staining based flow cytometry; assay type: functional; details: dose 100-1000 nM
MV4-11 [25] = experiment: Down regulation of […] mRNA expression in human MV4-11 cells at 100 to 1000 nM measured after 24 hrs by RT-qPCR analysis; assay type: functional, cell-based; details: dose 100-1000 nM
MV4-11 [26] = experiment: Induction of apoptosis in human MV4-11 cells assessed as late apoptotic cells at 300 nM measured after 72 hrs by Annexin-V-FITC/propidium iodide staining based flow cytometry (reference value: 1.09%); assay type: functional
MOLM-13 [27] = experiment: Antiproliferative activity against human MOLM-13 cells assessed as reduction in cell viability at 100 nM by MTT assay; assay type: functional, cell-based; details: time 3-7 day
[28] = AUC (0 to t) in SPF Sprague-Dawley rat at 1 mg/kg, iv by LC-MS/MS analysis; assay type: ADME, organism-based; details: in vivo
MV4-11 [29] = experiment: Down regulation of CDC25A mRNA expression in human MV4-11 cells at 11.1 to 33.3 nM measured after 24 hrs by RT-qPCR analysis; assay type: functional, cell-based; details: dose 11.1-33.3 nM
MV4-11 [30] = experiment: Antiproliferative activity against human MV4-11 cells assessed as reduction in cell viability at 100 nM by MTT assay; assay type: functional, cell-based; details: time 3-7 day
MV4-11 [31] = experiment: Down regulation of CD44 mRNA expression in human MV4-11 cells at 11.1 to 1000 nM measured after 24 hrs by RT-qPCR analysis; assay type: functional, cell-based; details: dose 11.1-1000 nM
SNU-449 = experiment: cells; details: Homo sapiens, SNU-449, 72 h
MOLM-13 [32] = experiment: Induction of apoptosis in human MOLM-13 cells assessed as upregulation of PARP expression measured after 72 hrs by Western blot analysis; assay type: functional, cell-based; details: dose 100-1000 nM
MV4-11 [33] = experiment: Cell cycle arrest in human MV4-11 cells assessed as increase in accumulation of cells at G0/G1 phase measured after 48 hrs by propidium iodide staining based flow cytometry; assay type: functional; details: dose 100-1000 nM
MV4-11 [34] = experiment: Induction of apoptosis in human MV4-11 cells assessed as late apoptotic cells at 1000 nM measured after 72 hrs by Annexin-V-FITC/propidium iodide staining based flow cytometry (reference value: 1.09%); assay type: functional

## Cc1ncsc1-c1ccc([C@H](C)NC(=O)[C@@H]2C[C@@H](O)CN2C(=O)[C@@H](NC(=O)C2(c3ccc(-c4cc(-c5ccccc5O)nnc4N)cc3)CC2)C(C)(C)C)cc1
MV4-11 [1]
  Activity: inactive
MDA-MB-231
  IC50: 24300 nM
[2]
  Tmax: 25.2 min
WSUDLCL2
  IC50: 337 nM
MOLM-13 [3]
  Activity: 0.19%
A2780
  IC50: 1790 nM
MOLM-13 [4]
  Activity: 6.91%
MOLM-13 [5]
  viability at 0.3 µM: 27.1%
[6]
  Activity: >=50%
MV4-11 [7]
  Activity: Dose-dependent-effect
MV4-11 [8]
  Activity: Active
MV4-11 [9]
  Activity: 54.11%
MOLM-13 [10]
  Activity: 0.31%
MV4-11 [11]
  Activity: Active
MV4-11 [12]
  Activity: Active
MOLM-13 [13]
  Activity: 58.21%
MOLM-13 [14]
  viability at 1 µM: 25.7%
SUD4
  IC50: 88 nM
[15]
  Activity: >=50%
MOLM-13 [16]
  Activity: Dose-dependent-effect
[17]
  MRT last: 42 min
MOLM-13 [18]
  IC50: 23 nM
[19]
  MRT last: 48.6 min
MV4-11 [20]
  Activity: 51.91%
MOLM-13 [21]
  viability at 0.1 µM: 54.1%
[22]
  Tmax: 1.98 min
MV4-11 [23]
  Activity: Dose-dependent-effect
MOLM-13 [24]
  Activity: Dose-dependent-effect
MV4-11 [25]
  Activity: Active
MV4-11 [26]
  Activity: 20.37%
MOLM-13 [27]
  Activity: Time-dependent-effect; Complete Reduction Was Achieved On Day 7
[28]
  AUCt: 358 ng·h/mL
MV4-11 [29]
  Activity: inactive
MV4-11 [30]
  Activity: Time-dependent-effect; Complete Reduction Was Achieved On Day 7
MV4-11 [31]
  Activity: Active
SNU-449
  IC50: 21500 nM
MOLM-13 [32]
  Activity: Dose-dependent-effect
MV4-11 [33]
  Activity: Dose-dependent-effect
MV4-11 [34]
  Activity: 24.35%
